Assay results from US8399462B2, “JNK modulators” (Roche Palo Alto LLC, priority 2006, dated 2013).

| Compound | melting point |
| --- | --- |
| CC(C)(O)c1cccc2c1ccn2-c1ccnc(N[C@H]2CC[C@H](C(=O)NCCS(C)(=O)=O)CC2)n1 [Compound 107, 4-{4-[4-(1-hydroxy-1-methylethyl)-indol-1-yl]-pyrimidin-2-yl-amino}-cyclohexane-carboxylic acid (2-methanesulfonyl-ethyl)-amide] | 208 to 210 °C |
| O=C([C@H]1CC[C@H](Nc2ncc(Cl)c(-n3ccc4ccccc43)n2)CC1)N1CCCC1 [Compound 120, [4-(5-chloro-4-indol-1-ylpyrimidin-2-ylamino)-cyclohexyl]-pyrrolidin-1-ylmethanone] | 182 to 182.5 °C |
| CN([C@H]1CC[C@H](Nc2nccc(-n3ncc4c(OCCCO)cccc43)n2)CC1)S(C)(=O)=O [Compound 178, N-(4-{4-[4-(3-hydroxy-propoxy)indazole-1-yl]-pyrmidin-2-ylamino}-cyclohexyl)-N-methyl-methanesulfonamide] | 208.4 to 209 °C |
| Cl.N[C@H]1CC[C@H](Nc2nccc(-n3ccc4c(F)cccc43)n2)CC1 | > 300 °C |
| CN([C@H]1CC[C@H](Nc2nccc(-c3noc4c(OCCCS(C)(=O)=O)cccc34)n2)CC1)S(C)(=O)=O [Compound 310, N-(4-{4-[7-(3-methane-sulfonyl-propoxy)-benzo[d]isoxazol-3-yl]-pyrimidin-2-ylamino}-cyclohexyl)-N-methyl-methanesulfonamide] | 213.5 to 214.2 °C |
| CC(C)(O)[C@H]1CC[C@H](Nc2nccc(-n3ccc4c(CC#N)cccc43)n2)CC1 [Compound 123, (1-{2-[4-(1-hydroxy-1-methylethyl)-cyclo-hexylamino]-pyrimidin-4-yl}-1H-indol-4-yl)-acetonitrile] | 188 to 191.7 °C |
| COCCOCc1cccc2c1ccn2-c1ccnc(N[C@H]2CC[C@H](NC(C)=O)CC2)n1 [Compound 140, N-(4-{4-[4-(2-methoxy-ethoxymethyl)-indol-1-yl]-pyrimidin-2-ylamino}-cyclohexyl)-acetamide] | 177 to 177.8 °C |
| CS(=O)(=O)N[C@H]1CC[C@H](Nc2nccc(-n3ccc4c(C5(O)CCS(=O)(=O)CC5)cccc43)n2)CC1 [Compound 230, N-(4-{4-[4-(4-hydroxy-1,1-dioxohexahydro-thiopyran-4-yl)-indol-1-yl]-pyrimidin-2-yl-amino}-cyclohexyl)-methanesulfonamide] | > 300 °C |
| CS(=O)(=O)N[C@H]1CC[C@H](Nc2nccc(-n3cc(C#N)c4ccccc43)n2)CC1 [Compound 247, N-{4-[4-(3-cyano-indol-1-yl)-pyrimidin-2-ylamino]-cyclohexyl}-methanesulfonamide] | > 300 °C |
| CS(=O)(=O)CCCOc1cccc2c1ccn2-c1ccnc(N[C@H]2CC[C@H](C(=O)N3CCC(C#N)CC3)CC2)n1 [Compound 265, 1-(4-{4-[4-(3-methane-sulfonyl-propoxy)-indol-1-yl]-pyrimidin-2-ylamino}-cyclohexane-carbonyl)-piperidine-4-carbonitrile] | 150.5 to 156.5 °C |
| CC(C)Oc1cccc2c1cnn2-c1ccnc(N[C@H]2CC[C@H](O)CC2)n1 [Compound 167, 4-[4-(4-isopropoxy-indazol-1-yl)-pyrimidin-2-ylamino]-cyclohexanol] | 188.2 to 189.2 °C |
| Nc1cccc2c1ccn2-c1ccnc(N[C@H]2CC[C@H](O)CC2)n1 [Example 8, trans-4-[4-(4-Aminoindol-1-yl)-pyrimidin-2-ylamino]-cyclohexanol] | 218.9 to 220.1 °C |
| COC1CCCN(C(=O)[C@H]2CC[C@H](Nc3nccc(-n4ccc5c(OCCCS(C)(=O)=O)cccc54)n3)CC2)C1 (stereo partly drawn) [Compound 263, (4-{4-[4-(3-methane-sulfonyl-propoxy)-indol-1-yl]-pyrimidin-2-ylamino}-cyclohexyl)-(3-methoxy-piperidin-1-yl)-methanone] | 121 to 122 °C |
| CN([C@H]1CC[C@H](Nc2nccc(-n3ccc4c(C(C)(C)O)cccc43)n2)CC1)S(C)(=O)=O [Compound 161, N-(4-{4-[4-(1-hydroxy-1-methyl-ethyl)-indol-1-yl]-pyrimidin-2-yl-amino}-cyclohexyl)-N-methyl-methane-sulfonamide] | 149 to 150 °C |
| COc1cccc2c1cnn2-c1ccnc(NC2CCC(NC(C)=O)CC2)n1 (stereo not drawn) [Compound 91, N-{4-[4-(4-methoxy-indazol-1-yl]-pyrimidin-2-ylamino}-cyclohexane}-acetamide] | 256.9 to 259.9 °C |
| O=C(O)c1cccc2c1ccn2-c1ccnc(N[C@H]2CC[C@H](O)CC2)n1 [Example 7, trans-1-[2-(4-Hydroxy-cyclohexylamino)-pyrimidin-4-yl]-1H-indole-4-carboxylic acid] | 259 to 261 °C |
| CS(=O)(=O)CCCOc1cccc2c(-c3ccnc(N[C@H]4CC[C@H](C(=O)N5CC[C@@H](O)C5)CC4)n3)noc12 [Compound 309, (3-hydroxy-pyrrolidin-1-yl)-(4-{4-[7-(3-methane-sulfonyl-propoxy)-benzo[d]isoxazol-3-yl]-pyrimidin-2-ylamino}-cyclohexyl)-methanone] | 224 to 225 °C |
| CS(=O)(=O)N[C@H]1CC[C@H](Nc2nccc(-n3ncc4c(OCCO)cccc43)n2)CC1 [Compound 141, N-(4-{4-[4-(2-hydroxy-ethoxy)-indazol-1-yl]-pyrimidin-2-ylamino}-cyclohexyl)-methane-sulfonamide] | 268.1 to 269.1 °C |
| C[C@@H](CO)COc1cccc2c1cnn2-c1ccnc(N[C@H]2CC[C@H](N(C)S(C)(=O)=O)CC2)n1 (stereo in doubt) [Compound 186, N-(4-{4-[4-(3-hydroxy-2-methylpropoxy)-indazol-1-yl]-pyrimidin-2-ylamino}-cyclohexyl)-N-methyl-methanesulfonamide] | 222 to 224 °C |
| CC(=O)NCCCOc1cccc2c1cnn2-c1ccnc(N[C@H]2CC[C@H](N(C)S(C)(=O)=O)CC2)n1 [Compound 213, N-[3-(1-{2-[4-(methane-sulfonyl-methylamino)-cyclohexylamino]-pyrimidin-4-yl}-1H-indazol-4-yloxy)-propyl]-acetamide] | 226 to 227 °C |
| COCCOc1cccc2c1ccn2-c1ccnc(N[C@H]2CC[C@H](NS(C)(=O)=O)CC2)n1 [Compound 221, N-(4-{4-[4-(2-methoxy-ethoxy)-indol-1-yl]-pyrimidin-2-ylamino}-cyclohexyl)-methanesulfonamide] | 203 to 205 °C |
| O=C1c2ccccc2C(=O)N1Cc1cccc2c1ccn2-c1ccnc(N[C@H]2CC[C@H](O)CC2)n1 [Compound 106, 2-{1-[2-(4-hydroxy-cyclohexylamino)-pyrimidin-4-yl]-1H-indol-4-ylmethyl}-isoindole-1,3-dione] | 251.7 to 253 °C |
| CN(C)C(=O)[C@H]1CC[C@H](Nc2nccc(-n3ncc4c(OCc5ccccn5)cccc43)n2)CC1 [Compound 150, 4-{4-[4-(pyridine-2-yl-methoxy)-indazol-1-yl]-pyrimidin-2-ylamino}-cyclohexanecarboxylic acid dimethylamide] | 217.3 to 219 °C |
| CN([C@H]1CC[C@H](Nc2nccc(-n3ccc4c(CNS(C)(=O)=O)cccc43)n2)CC1)S(C)(=O)=O [Compound 188, N-(4-{4-[4-(methane-sulfonylamino-methyl)-indol-1-yl]-pyrimidin-2-ylamino}-cyclohexyl)-N-methyl-methane-sulfonamide] | 226.5 to 228 °C |
